Measurements taken from patent publication US7169815B2, “3-methoxybenzyl thiourea derivatives and improved lipid compositions containing same” (The United States of America as represented by the …, priority 2000, dated 2007).
Converted amounts (≈) assume the structure as drawn. Like-named read-outs stand apart in the source and are kept apart here.

Key:
[1] = Oxidative Stability by Rotating Pressure Vessel (RBOT) of refined meadowfoam seed oil plus thiourea compounds
Excerpt: Another presently preferred method of determining oxidative stability of lipids and oils employs the Oxidative Stability by Rotating Pressure Vessel (RBOT) test. In this test, oxidative stability, determined according to the ASTM D2272-98 test method (ASTM, 2001, “Standard Test Method for Oxidation Stability of Steam Turbine Oils by Rotating Pressure Vessel,” in Book of Standards, Vol. 05.01., American Society for Testing and Materials, West Conshohocken, Pa.), measures the time for oxygen pressure to decrease in a closed stainless steel vessel containing a lipid or oil when heated with a copper coil catalyst. Oxygen taken up by the lipid or oil during the reaction is an indication of oil degradation.
In these experiments, Oxidative Stability by Rotating Pressure Vessel (RBOT) tests were performed with different 3-methoxybenzyl thiourea compounds synthesized in Example 3 that were mixed in different quantities with different mono- and polyunsaturated vegetable oils. Hexane was used to clean and store the copper coils, but all other aspects of the Oxidative Stability by Rotating Pressure Vessel (RBOT) test were the same as in the standard ASTM D2272–98 test method (ASTM, 2001, “Standard Test Method for Oxidation Stability of Steam Turbine Oils by Rotating Pressure Vessel,” in Book of Standards, Vol. 05.01., American Society for Testing and Materials, West Conshohocken, Pa.).

[2] = UVB and UVA molar absorptivities in chloroform; assay type: physicochemical; conditions: 0.01 mg/ml in chloroform
Procedure: The compounds synthesized in Example 3 were tested to determine their ability to absorb […] UVA light. UV spectra of quantitatively weighed and diluted samples (0.01 mg/ml) in chloroform were scanned from 244–450 nm at 240 nm/min on a Beckman DU 640 spectrophotometer (Beckman Coulter, Inc., Fullerton, Calif.). Amax in the 280–320 nm range was determined and converted to molar absorptivity for the UVB region, and Amax in the 320–400 nm range was determined and converted to molar absorptivity for the UVA region.

[3] = in vivo; conditions: Artemia salina (brine shrimp), in vivo, other: exposure in seawater in microplate wells
Procedure: (§1) Brine shrimp eggs (Artemia salina) were obtained from Brine Shrimp Direct, Ogden, Utah and stored at 10° C. until used. Eggs (400 mg) were added to 1 l of deionized water containing 40 g of sea salts (Sigma Chemical Co., St. Louis, Mo.).
(§2) Serial dilutions were performed in 100 μl of seawater in triplicate in the wells of a 96-well microplate to give appropriate concentrations. Control wells for both water and DMSO were included with each experiment. […] The number of non-motile, and the total number of, naupli were counted in each well using a binocular microscope (10×).

[4] = tested on: Brine Shrimp (Artemia Salina); assay: in vivo; conditions: as Table 7 shows
Procedure: as §1, §2

[5] = Solubility in refined meadowfoam seed oil (HPLC); assay type: physicochemical; conditions: oil or lipid, thermodynamic from solid, cooled to room temperature overnight
Procedure: Typical retention times were 7–9 min for the thioureas. Samples were weighed accurately (about 0.1 g) into 1.00 g of refined meadowfoam seed oil and heated to temperature (either 30° C. or 50° C.) for 4 h with occasional shaking. The samples were cooled to room temperature overnight, centrifuged and 0.3 g of the supernatant oil was removed and diluted with 1 ml CHCl3 for testing.

[6] = Decomposition temperature by differential scanning calorimetry; assay type: physicochemical; conditions: DSC, onset of decrease in slope of temperature-heat flow curve; unit not given (scans in ° C.)
Procedure: A dual cell Perkin Elmer differential scanning calorimeter (PE DSC 7, Norwalk, Conn.) was used to determine the thermal transitions of the compounds. All scans were carried out from 30° C. to 200° C. at a heating and cooling rate of 10° C./minute and 40° C./min, respectively, except for 1-(3-methoxybenzyl)-3-(1-propenyl) thiourea, for which the scans were carried out from 0° C. to 200° C. at a heating rate of 10° C./min, and 1-(3-methoxybenzyl)-3-octadecyl thiourea, for which both the heating and cooling rates were 10° C./min. 1,3-di(3-methoxybenzyl) thiourea and 1-(3-methoxybenzyl)-3-dodecyl thiourea were heated to 300° C., and 1-(3-methoxybenzyl)-3-(4-methoxybenzoyl) thiourea was heated to 250° C. to determine the decomposition temperature. The decomposition temperature was taken as the onset of a decrease in the slope of the temperature-heat flow DSC curve. The first heating curve was recorded in all cases, and liquid nitrogen was used to quench the samples after the first heating.

[7] = Behaviour on addition of water to DMSO solution (sample preparation); assay type: physicochemical; conditions: dissolved in 50 μl DMSO, water added to make 1 mg/ml
Procedure: Test compounds (1–2 mg) were originally made up at a concentration of 1 mg/ml in artificial seawater, except for water insoluble compounds, which were dissolved in 50 μl of dimethyl sulfoxide (DMSO) prior to adding enough water to make a 1 mg/ml solution. Serial dilutions were performed in 100 μl of seawater in triplicate in the wells of a 96-well microplate to give appropriate concentrations. Control wells for both water and DMSO were included with each experiment. A 100 μl solution of naupli (10–30) was added to each well, and the covered plate was incubated for 24 h at 27° C. The number of non-motile, and the total number of, naupli were counted in each well using a binocular microscope (10×). LC50 values were then calculated by Probit analysis (Finney, D. J., 1971, “Probit Analysis,” 3rd Ed.; University Press: Cambridge [Eng.]).

Oxidative Stability (RBOT) ([1]; Refined Meadowfoam Seed Oil plus 0.1% compound): 43 min | Oxidative stability in the RBOT test, in words ([1]; addition of 0.1% compound): doubled | UVBMAX Molar Absorptivity ([2]; Amax in 280–320 nm): 2999 | UVAMAX Molar Absorptivity ([2]; Amax in 320–400 nm): 0.0 | solubility at 4 h ([5]; heated to 30° C. for 4 h, read-out: Solubility at 30° C.): 3070 µg/mL (≈ 9.95 mM) | solubility at 4 h ([5]; heated to 50° C. for 4 h, read-out: Solubility at 50° C.): 2490 µg/mL (≈ 8.07 mM) | Decomposition Temperature [6]: > 200 °C | behaviour upon the addition of water [7]: precipitated out of solution
Structure (SMILES): CCCCCCCCNC(=S)NCc1cccc(OC)c1 [1-(3-methoxybenzyl)-3-octyl thiourea]
LC50 at 24 h [3]: 240 µg/mL (≈ 0.778 mM) | toxicity against brine shrimp, in words [4]: low toxicity
